# Like-named read-outs stand apart in the source and are kept apart here.
# Experiments:
# [1] = test system: PGE2 production; assay: Inhibition of PGE2 formation in LPS-stimulated RAW 264.7 macrophages (EIA); type: cell-based, murine; conditions: Mus musculus, read-out: PGE2 Production by RAW Cells IC50
# Protocol: (§1) The anti-inflammatory effects of the compounds were evaluated in activated macrophages by determining the inhibition of the synthesis of nitric oxide and/or PGE2. In order to induce an in vitro “inflammatory response”, murine macrophages RAW264.7 were stimulated with lipopolysaccharide (LPS) without or with graded amounts of the test substances. Murine macrophages RAW 264.7 cells respond to LPS-stimulation by the release of substantial amounts of Prostaglandin E2 (PGE2) and nitric oxide (NO), which is impaired by anti-inflammatory compounds. Prostaglandins PGE2 play a critical role in the inflammation process, while nitric oxide is a hallmark of inflammation in conditions like arthritis. Therefore, we evaluated the effect of the compounds on PGE2 and NO production.
# RAW 264.7 cells: were cultured in Dulbecco's Modified eagle Medium (DMEM) supplemented with 10% fetal calf serum (FCS), 50 units/ml penicillin, 50 μg/ml streptomycin, L-glutamine and nonessential amino acids (NEM, Life Technologies, No. 11140). RAW cells were used between passage 10 and 50. For the experiments, cells were seeded into 6-well, 12-well or 96-well plates at 2, 1 and 0.05 mio cells per well, respectively, and used after 1 or 2 days of pre-culture. Cells were starved in complete DMEM medium containing 0.25% FCS 18 hours before the treatment. Cells were stimulated with LPS (1 μg/ml) for 24 hours in phenol-free DMEM containing 0.25% FCS. Substances to be tested were dissolved in DMSO (usually at 10 mM) and added to the culture medium concomitantly with the stimulus. […] After 24 hours nitrite concentrations were measured in culture supernatants by the Griess reaction and secreted PGE2 was determined by Enzyme immunoassay (EIA) in unstimulated and LPS-stimulated RAW264.7 cells. The compounds were simultaneously tested at different concentrations to obtain a dose response curve. […] The effects of compounds of the formula (I) on PGE2 production was also measured in the murine macrophage cell line RAW 264.7 (Table 1).
# [2] = test system: nitric oxide (NO) production; assay: Inhibition of nitric oxide production in LPS-stimulated RAW264.7 macrophages (Griess reaction); type: cell-based, murine; conditions: Mus musculus; RAW264.7, LPS 1 μg/ml, 24 hours
# Protocol: as §1
# RAW 264.7 cells: were cultured in Dulbecco's Modified eagle Medium (DMEM) supplemented with 10% fetal calf serum (FCS), 50 units/ml penicillin, 50 μg/ml streptomycin, L-glutamine and nonessential amino acids (NEM, Life Technologies, No. 11140). […] After 24 hours nitrite concentrations were measured in culture supernatants by the Griess reaction and secreted PGE2 was determined by Enzyme immunoassay (EIA) in unstimulated and LPS-stimulated RAW264.7 cells. […] The effects of compounds of the formula (I) on PGE2 production was also measured in the murine macrophage cell line RAW 264.7 (Table 1).
# [3] = test system: COX-2; assay: Gene expression in LPS-stimulated THP-1 cells, quantitative RT-PCR; type: cell-based, human; conditions: THP-1, ligustilide 25 μM, LPS 1 μg/ml, 4 hours
# Protocol: (§2) THP-1 cells, a human monocyte/histiocyte cell line, were cultured in RPMI 1640 medium supplemented with 10% FCS, 50 units/ml penicillin, […] streptomycin, NEM and 2×10^−5 M β-mercaptoethanol. Cells were treated with 50 nM phorbol myristate acetate for 3 days. Cells were starved overnight in medium containing 0.25% FCS before being treated. Cells were stimulated with LPS (1 μg/ml) for 4 hours in phenol-free RPMI containing 0.25% FCS. Ligustilide (25 μM) was added to the culture medium concomitantly with the stimulus. […] LPS-stimulation induces the expression of a large variety of genes including those of inflammatory pathways. After 4 hours of stimulation we have evaluated the impact of ligustilide on the expression of inflammatory genes using quantitative real-time RT-PCR (reverse transcriptase polymerase chain reaction) technology (Table 2).
# [4] = test system: IL-1α; assay: as above; type: cell-based, human; conditions: THP-1, ligustilide 25 μM, LPS 1 μg/ml, 4 hours
# Protocol: as §2
# [5] = test system: IL-6; assay: as above; type: cell-based, human; conditions: THP-1, ligustilide 25 μM, LPS 1 μg/ml, 4 hours
# Protocol: as §2
# [6] = test system: IL-8; assay: as above; type: cell-based, human; conditions: THP-1, ligustilide 25 μM, LPS 1 μg/ml, 4 hours
# Protocol: as §2
# [7] = test system: MIP-2; assay: as above; type: cell-based, human; conditions: THP-1, ligustilide 25 μM, LPS 1 μg/ml, 4 hours
# Protocol: as §2
# [8] = test system: MIP-3α; assay: as above; type: cell-based, human; conditions: THP-1, ligustilide 25 μM, LPS 1 μg/ml, 4 hours
# Protocol: as §2
# [9] = test system: TNF-α; assay: as above; type: cell-based, human; conditions: THP-1, ligustilide 25 μM, LPS 1 μg/ml, 4 hours
# Protocol: as §2
# [10] = test system: carrageenan-induced paw edema; assay: Carrageenan-induced paw edema in rats; type: in vivo; conditions: rat, 100 mg/kg oral; for Paw edema volume: mean of 10
# Protocol: The anti-inflammatory activity of the compounds was evaluated in vivo in the carrageenan-induced paw edema rat model. This model has long been used to assess the anti-inflammatory properties of agents that inhibit prostaglandins, such as nonsteroidal anti-inflammatory drugs (NSAIDs) The model causes time-dependent edema formation following carrageenan administration into the sub-plantar surface of a rat paw. Twenty male Sprague-Dawley rats weighing 130 to 146 g were randomized in two groups. They were housed in a temperature (19.5-24.5° C.) and relative humidity (45-65%) controlled room with a 12-h light/dark cycle, with ad libitum access to filtered tap-water and standard pelleted laboratory chow throughout the study. They were housed 5 per cage and a 5-6-day acclimatization period was observed before any testing. Animals were individually identified on the tail. Ligustilide (100 mg/kg) suspended in 1% methylcellulose (in a volume of 10 mL/kg) or vehicle alone were administered by the oral route in a coded and random order after an overnight fast. One hour later, inflammation is induced by subplantar injection of a 2% carrageenan suspension into the right paw. The paw volume of each rat was measured in mL at the following time points: 0 h, 1.5 h, 3 h, and 4.5 h after the injection of carrageenan. The paw edema volume of each rat at each time point was expressed as the change from initial value. The anti-inflammatory effect on edema volume in treated-groups was expressed as % inhibition [(mean of vehicle-treated group paw edema volume−mean of the treated group paw edema volume)/mean of vehicle-treated group paw edema volume)×100]. All data of paw edema volume are expressed in mL as Mean of 10 rats in each group.
# [11] = test system: kaolin-induced arthritis; assay: Kaolin-induced arthritis in rats, gait score; type: in vivo; conditions: rat, 100 mg/kg oral; for Gait score: score from 0 to 3, mean of 10; for % improvement of gait score: vs control
# Protocol: Twenty male Sprague Dawley rats weighing 103 g to 132 g, were included in this study. They were housed in a temperature (19.5-24.5° C.) and relative humidity (45-65%) controlled room with a 12-h light/dark cycle, with ad libitum access to filtered tap-water and standard pelleted laboratory chow, throughout the study. Upon receipt at animal facilities, they were housed 5 per cage and at least a 5-day acclimatization period were observed before any testing. Animals were individually identified on the tail. Arthritis is induced by injection of a 10% kaolin suspension into the knee joint of the rat right hindpaw. In the vehicle-treated group, injection of kaolin suspension into the knee joint of the rat right hindpaw induced an impairment of the gait, evaluated by an increase of the gait score (score from 0 to 3). Gait of animals is used to measure the spontaneous painful behavior. Ligustilide (100 mg/kg) suspended in 1% methylcellulose (in a volume of 10 ml/kg) or vehicle alone were administered by oral route in a coded and random order, 30 min after kaolin injection. The assessment of score behavior was monitored every hour from 1.5 hours to 5.5 hours following drug dosing. The mean gait score was calculated from individual values at each time. The percentage of inhibition of the mean gait score as compared to the mean value of the control group was calculated 1.5, 2.5, 3.5, 4.5 hours and 5.5 hours after dosing.
# The results are expressed for each group as the mean of the gait scores of 10 animals per group.
# [12] = test system: Collagen 1; assay: Gene expression in IL-1β activated chondrocytes, RT-PCR; type: cell-based; conditions: 4 hours, SW1353 or normal human chondrocytes, concentration not given
# Protocol: (§3) Articulate tissues i.e. joints contain chondrocytes. Their physiological deterioration leads to the erosion of joint tissue components and thus to e.g. osteoarthritis. We have evaluated the effect of ligustilide on catabolic events in chondrocytes. SW1353 chondrosarcoma cells or normal human chondrocytes (derived from knee) were activated with interleukin-1β in the presence of graded amount of test compounds for 4 hours. RNA was then extracted from these cells and reverse-transcribed. Expression of marker genes for catabolic events like matrix metalloproteinases (MMPs) was determined by quantitative real time polymerase chain reaction (RT-PCR). As shown in Table 5 ligustilide influenced the expression level of several MMPs, which are critically involved in the destruction of extracellular matrix. Ligustilide reduced its expression and thus is supposed to prevent tissue erosion in osteoarthritic diseases.
# [13] = test system: Collagen 2; assay: as above; type: cell-based; conditions: 4 hours, SW1353 or normal human chondrocytes, concentration not given
# Protocol: as §3
# [14] = test system: MMP-13; assay: as above; type: cell-based; conditions: 4 hours, SW1353 or normal human chondrocytes, concentration not given
# Protocol: as §3
# [15] = test system: MMP-1; assay: as above; type: cell-based; conditions: 4 hours, SW1353 or normal human chondrocytes, concentration not given
# Protocol: as §3
# [16] = test system: MMP-3; assay: as above; type: cell-based; conditions: 4 hours, SW1353 or normal human chondrocytes, concentration not given
# Protocol: as §3
# [17] = test system: MMP-9; assay: as above; type: cell-based; conditions: 4 hours, SW1353 or normal human chondrocytes, concentration not given
# Protocol: as §3
# [18] = test system: adhesion of U937 to human umbilical cord endothelial cells (HUVEC); assay: Adhesion of U937 monocytes to TNF-α stimulated HUVEC; type: cell-based; conditions: 20 hours stimulation
# Protocol: (§4) Artherosclerotic lesions can develop as a consequence of endothelial dysfunction. This is reflected by altered i.e. increased adhesion of monocytes to endothelial layers. We evaluated the effect of ligustilide on adhesion of U937, a monocyte cell line, to human umbilical cord endothelial cells (HUVEC). HUVEC were stimulated with TNF-α in the absence or presence of ligustilide (25 or 50 μmol/L) for 20 hours and the adhesion of U937 was determined according to Carluccio et al. (Arterioscler Thromb Vasc Biol 2003; 23, 622-629). […] Adhesion of monocytes to endothelial layers is mediated by the expression of intercellular adhesion molecule 1 (ICAM-1). Therefore, we further analyzed the effects of ligustilide on the level of ICAM-1 mRNA in HUVEC by quantitative RT-PCR.
# [19] = test system: intercellular adhesion molecule 1 (ICAM-1) mRNA; assay: ICAM-1 mRNA level in TNF-α stimulated HUVEC, quantitative RT-PCR; type: cell-based, human; conditions: 2 hours of stimulation
# Protocol: as §4
# [20] = RAW264.7, RAW 264.7, LPS 1 μg/ml, 24 hours
smiles,measurement,setting,value
"CCCC[C@@H]1OC(=O)c2ccccc21 [3-Butylphthalide, 3S-Butylphthalide]",IC50,[1]; [20],3 µM
CCC/C=C1\OC(=O)C2=C1CCC=C2 [Ligustilide],IC50,[2],12.2 ± 3.1 µM
same,IC50,[1]; [20],3.2 µM
same,"Gene expression (in %) relative to LPS control, COX-2",[3],24.1%
same,"Gene expression (in %) relative to LPS control, IL-1α",[4],15.2%
same,"Gene expression (in %) relative to LPS control, IL-6",[5],52.3%
same,"Gene expression (in %) relative to LPS control, IL-8",[6],72.4%
same,"Gene expression (in %) relative to LPS control, MIP-2",[7],52.0%
same,"Gene expression (in %) relative to LPS control, MIP-3α",[8],67.2%
same,"Gene expression (in %) relative to LPS control, TNF-α",[9],50.6%
same,% Inhibition of paw edema volume vs vehicle-treated group,[10]; 1.5 h after carrageenan,29%
same,Paw edema volume,[10]; 1.5 h after carrageenan,0.17 mL
same,% Inhibition of paw edema volume vs vehicle-treated group,[10]; 3 h after carrageenan,27%
same,Paw edema volume,[10]; 3 h after carrageenan,0.32 mL
same,% Inhibition of paw edema volume vs vehicle-treated group,[10]; 4.5 h after carrageenan,11%
same,Paw edema volume,[10]; 4.5 h after carrageenan,0.40 mL
same,Gait score,[11]; 1.5 hours after dosing,0.3
same,% improvement of gait score,[11]; 1.5 hours after dosing,25%
same,Gait score,[11]; 2.5 hours after dosing,0.4
same,% improvement of gait score,[11]; 2.5 hours after dosing,43%
same,Gait score,[11]; 3.5 hours after dosing,0.6
same,% improvement of gait score,[11]; 3.5 hours after dosing,50%
same,Gait score,[11]; 4.5 hours after dosing,0.9
same,% improvement of gait score,[11]; 4.5 hours after dosing,53%
same,Gait score,[11]; 5.5 hours after dosing,1.3
same,% improvement of gait score,[11]; 5.5 hours after dosing,38%
same,Analgesic effect in comparison to the control group,"[11]; at 3.5, 4.5 and 5.5 hours after dosing",significant analgesic effect
same,"Gene expression (in %) relative to IL-1β activated chondrocytes, Collagen 1",[12],115%
same,"Gene expression (in %) relative to IL-1β activated chondrocytes, Collagen 2",[13],184%
same,"Gene expression (in %) relative to IL-1β activated chondrocytes, MMP-13",[14],50%
same,"Gene expression (in %) relative to IL-1β activated chondrocytes, MMP-1",[15],17%
same,"Gene expression (in %) relative to IL-1β activated chondrocytes, MMP-3",[16],2%
same,"Gene expression (in %) relative to IL-1β activated chondrocytes, MMP-9",[17],33%
same,% reduction of adherence,[18]; TNF-α + 25 μM ligustilide,39%
same,Number of adherent cells,[18]; TNF-α + 25 μM ligustilide,61 ± 25
same,% reduction of adherence,[18]; TNF-α + 50 μM ligustilide,73%
same,Number of adherent cells,[18]; TNF-α + 50 μM ligustilide,27 ± 21
same,% reduction of expression (ICAM-1 mRNA),[19]; TNF-α + 25 μM ligustilide,58%
same,Relative ICAM-1 mRNA level,[19]; TNF-α + 25 μM ligustilide,25 ± 6 arbitrary units
same,% reduction of expression (ICAM-1 mRNA),[19]; TNF-α + 50 μM ligustilide,73%
same,Relative ICAM-1 mRNA level,[19]; TNF-α + 50 μM ligustilide,16 ± 1 arbitrary units
"CCC/C=C1\OC(=O)c2ccccc21 [N-Butylidenephthalide, E + Z-3-Butylidenephthalide]",IC50,"[1]; RAW264.7, 24 h",3 µM

# Source: patent US20090176873A1, “NOVEL USE OF ORGANIC COMPOUNDS” (DSM IP ASSETS B.V., priority 2005, published 2009)
